Source: patent US7625913B2, “Pyrazole compounds useful as protein kinase inhibitors” (Vertex Pharmaceuticals Incorporated, priority 2000, dated 2009)

Columns and labels:
[1] = molecular target: T1, GSK-3β (AA 1-420) (Homo sapiens, UniProt P49841); assay: Ki determination for the inhibition of GSK-3 (coupled enzyme system); type: biochemical; settings: 20 μM ATP, 300 μM peptide, 20 nM GSK-3β, 30° C.
T1 construct: GSK-3β (AA 1-420)
Procedure: Reactions were carried out in a solution containing 100 mM HEPES (pH 7.5), 10 mM MgCl2, 25 mM NaCl, 300 μM NADH, 1 mM DTT and 1.5% DMSO. Final substrate concentrations in the assay were 20 μM ATP (Sigma Chemicals, St Louis, Mo.) and 300 μM peptide (HSSPHQS(PO3H2)EDEEE, American Peptide, Sunnyvale, Calif.). Reactions were carried out at 30° C. and 20 nM GSK-3β. Final concentrations of the components of the coupled enzyme system were 2.5 mM phosphoenolpyruvate, 300 μM NADH, 30 μg/ml pyruvate kinase and 10 μg/ml lactate dehydrogenase.
An assay stock buffer solution was prepared containing all of the reagents listed above with the exception of ATP and the test compound of interest. […] The reaction was initiated by the addition of 20 μl of ATP (final concentration 20 μM). Rates of reaction were obtained using a Molecular Devices Spectramax plate reader (Sunnyvale, Calif.) over 10 min at 30° C. The Ki values were determined from the rate data as a function of inhibitor concentration.

[2] = molecular target: T2, Aurora-2 (Homo sapiens, UniProt O14965); assay: Ki determination for the inhibition of Aurora-2 (coupled enzyme assay); type: biochemical; settings: 70 nM Aurora-2, peptide LRRASLG, 30° C.
T2 sequence (O14965 1-403): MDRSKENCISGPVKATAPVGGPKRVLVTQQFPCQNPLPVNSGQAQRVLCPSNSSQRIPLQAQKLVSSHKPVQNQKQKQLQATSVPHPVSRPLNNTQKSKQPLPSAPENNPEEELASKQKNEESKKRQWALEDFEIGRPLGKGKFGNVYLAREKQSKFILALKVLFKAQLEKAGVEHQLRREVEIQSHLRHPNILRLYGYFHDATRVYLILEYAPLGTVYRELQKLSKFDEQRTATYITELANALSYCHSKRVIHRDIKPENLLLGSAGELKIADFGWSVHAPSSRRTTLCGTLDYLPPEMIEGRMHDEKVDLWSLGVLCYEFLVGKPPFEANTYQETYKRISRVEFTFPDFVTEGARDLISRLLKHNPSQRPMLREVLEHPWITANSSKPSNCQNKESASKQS
Procedure: To an assay stock buffer solution containing 0.1M HEPES 7.5, 10 mM MgCl2, 1 mM DTT, 25 mM NaCl, 2.5 mM phosphoenolpyruvate, […], 30 mg/ml pyruvate kinase, 10 mg/ml lactate dehydrogenase, 40 mM ATP, and 800 μM peptide (LRRASLG, American Peptide, Sunnyvale, Calif.) was added a DMSO solution of a compound of the present invention to a final concentration of 30 μM. The resulting mixture was incubated at 30° C. for 10 min. The reaction was initiated by the addition of 10 μL of Aurora-2 stock solution to give a final concentration of 70 nM in the assay. […] The Ki values were determined from the rate data as a function of inhibitor concentration.

[3] = molecular target: CDK-2/Cyclin A (Homo sapiens, UniProt P24941); assay: CDK-2 inhibition assay (coupled enzyme assay); type: biochemical; settings: 25 nM CDK-2/Cyclin A, 30° C.
Procedure: Compounds were screened in the following manner for their ability to inhibit CDK-2 using a standard coupled enzyme assay (Fox et al (1998) Protein Sci 7, 2249).
To an assay stock buffer solution containing 0.1M HEPES 7.5, 10 mM MgCl2, 1 mM DTT, 25 mM NaCl, 2.5 mM phosphoenolpyruvate, […], 30 mg/ml pyruvate kinase, 10 mg/ml lactate dehydrogenase, 100 mM ATP, and 100 μM peptide ([…], American Peptide, Sunnyvale, Calif.) was added a DMSO solution of a compound of the present invention to a final concentration of 30 μM. The resulting mixture was incubated at 30° C. for 10 min.
The reaction was initiated by the addition of 10 μL of CDK-2/Cyclin A stock solution to give a final concentration of 25 nM in the assay. The rates of reaction were obtained by monitoring absorbance at 340 nm over a 5-minute read time at 30° C. using a BioRad Ultramark plate reader (Hercules, Calif.). The Ki values were determined from the rate data as a function of inhibitor concentration.

T1 sequence (P49841 whole entry, the tested form may be a part): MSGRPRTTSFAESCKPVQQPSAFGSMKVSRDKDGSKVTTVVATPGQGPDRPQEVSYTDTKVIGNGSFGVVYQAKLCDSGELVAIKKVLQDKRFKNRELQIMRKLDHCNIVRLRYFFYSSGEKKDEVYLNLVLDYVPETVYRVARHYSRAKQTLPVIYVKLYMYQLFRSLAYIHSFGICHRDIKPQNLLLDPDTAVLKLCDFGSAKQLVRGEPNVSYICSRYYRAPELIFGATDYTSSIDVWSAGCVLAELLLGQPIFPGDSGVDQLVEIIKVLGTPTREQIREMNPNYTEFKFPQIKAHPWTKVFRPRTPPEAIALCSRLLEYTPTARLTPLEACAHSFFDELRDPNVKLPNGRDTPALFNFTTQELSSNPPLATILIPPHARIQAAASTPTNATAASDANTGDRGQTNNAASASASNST

Structure (SMILES): COc1ccc2c(Nc3cc(C)n[nH]3)nc(Sc3ccc(NC(C)=O)cc3)nc2c1 [IIa-40, [2-(4-Acetamidophenylsulfanyl)-7-methoxy-quinazolin-4-yl]-(5-methyl-2H-pyrazol-3-yl)-amine]
- melting point: 291 to 293 °C
- Ki [1]: 1 to 7 µM
- Ki [2]: < 0.1 µM
- Ki [3]: 1 to 20 µM
